Data published in US20260250275A1, “HETEROARYL ENHANCERS OF THE PARTICULATE GUANYLYL CYCLASE RECEPTOR A” (University of Florida Research Foundation, Incorporated, priority 2022, published 2026).
Like-named read-outs stand apart in the source and are kept apart here.

Key:
human GC-A = target: T1, human GC-A (Homo sapiens, UniProt P16066); assay: cGMP potentiation (HTRF) in human GC-A overexpressing HEK293 cells with EC20 ANP; format: cell-based; conditions: for LLE (lipophilic ligand efficiency = EC50−cLogP): calculated from EC50 and cLogP; for Emax: HEK293, 100% = saturating ANP (10 nM), 0% = EC20 ANP
T1 construct: host or cells: HEK293
T1 sequence (P16066 33-1061): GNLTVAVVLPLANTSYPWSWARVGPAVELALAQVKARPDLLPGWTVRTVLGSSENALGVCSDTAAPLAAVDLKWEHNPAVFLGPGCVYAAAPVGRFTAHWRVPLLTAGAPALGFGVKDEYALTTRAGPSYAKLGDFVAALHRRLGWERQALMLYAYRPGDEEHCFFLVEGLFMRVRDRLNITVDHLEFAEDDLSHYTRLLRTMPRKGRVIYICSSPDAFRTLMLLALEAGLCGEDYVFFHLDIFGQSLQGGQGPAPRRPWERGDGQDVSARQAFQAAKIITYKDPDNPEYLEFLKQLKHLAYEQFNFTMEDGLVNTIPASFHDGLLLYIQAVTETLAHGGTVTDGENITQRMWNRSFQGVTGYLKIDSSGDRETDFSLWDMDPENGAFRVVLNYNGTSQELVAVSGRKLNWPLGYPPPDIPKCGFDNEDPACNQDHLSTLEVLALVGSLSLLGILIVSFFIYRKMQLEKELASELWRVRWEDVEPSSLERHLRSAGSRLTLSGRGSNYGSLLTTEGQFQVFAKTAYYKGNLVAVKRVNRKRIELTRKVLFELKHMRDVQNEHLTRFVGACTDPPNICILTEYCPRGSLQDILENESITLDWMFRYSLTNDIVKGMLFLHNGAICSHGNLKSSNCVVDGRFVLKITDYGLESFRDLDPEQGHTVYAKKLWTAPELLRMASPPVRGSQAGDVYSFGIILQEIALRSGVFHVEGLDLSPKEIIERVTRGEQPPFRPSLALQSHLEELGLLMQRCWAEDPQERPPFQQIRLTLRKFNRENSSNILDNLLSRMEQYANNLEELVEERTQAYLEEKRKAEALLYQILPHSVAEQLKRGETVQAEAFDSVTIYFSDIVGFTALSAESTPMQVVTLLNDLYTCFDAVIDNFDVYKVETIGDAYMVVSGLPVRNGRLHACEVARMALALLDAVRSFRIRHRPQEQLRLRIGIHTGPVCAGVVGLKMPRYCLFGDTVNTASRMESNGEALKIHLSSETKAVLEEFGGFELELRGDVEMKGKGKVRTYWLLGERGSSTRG
T1 sequence (P01160 124-151 partner limits assumed): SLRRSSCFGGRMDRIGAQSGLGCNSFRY

[1] = cited from earlier work
[2] = potentiation of cGMP in presence of EC20 ANP (20 pM), Tables 1-7, read-out: EC50

With CN(C)CCN1CCCCC1C(=O)Nc1nc2c(F)cc(F)cc2s1 (centres unmarked) [JUF-S2-003] the “LLE (lipophilic ligand efficiency = EC50−cLogP)” value (human GC-A) was 2.51.

With COc1ccc(-c2csc(NC(=O)C3CCCN(CCN(C)C)C3)n2)cc1 (centres unmarked) [JUF-S7-013] the “LLE (lipophilic ligand efficiency = EC50−cLogP)” value (human GC-A) was 2.69.

For CN(C)C1CCN(CC(=O)Nc2nc3c(F)cc(F)cc3s2)CC1 [JUF-S10-004], the Emax (human GC-A) was 91 to 96% and the EC50 (human GC-A; [2]) was 1500 to 2600 nM.

N[C@@H]1CCCC(C(=O)Nc2nc3c(F)cc(F)cc3s2)C1 (some centres unmarked) [JUF-S12-001A] gave an Emax (human GC-A) of 87 to 97%.

For N[C@@H]1CCC[C@H](C(=O)Nc2nc3c(F)cc(F)cc3s2)C1 [JUF-S12-001A], the EC50 (human GC-A; [2]) was 700 to 3100 nM.

With CN(C)CCN[C@@H]1CCC[C@@H](C(=O)Nc2nc3c(F)cc(F)cc3s2)C1 [JUF-S12-002] the EC50 (human GC-A; [2]) was over 5000 nM.

In the case of CN(C)CCN1CCCC(C(=O)Nc2nc3c(F)cc(F)cc3s2)C1 (centres unmarked) [MCUF 651, reference compound], the “Emax values of internal control (FIG. 2)” value (human GC-A; titrated on each 384-test plate) is reported as 80-100 % response and the EC50 (human GC-A; titrated on each 384-test plate, read-out: Acceptable EC50 values of internal control (FIG. 2)) is reported as 200 to 600 nM.

For CN(C)CCN1CCCC(C(=O)Nc2nc3c(F)cc(F)cc3s2)C1 (centres unmarked) [MCUF-651], the Activity in vivo [1] is listed as “active in vivo” and the Oral bioavailability ([1]; in vivo, po) is listed as “orally bioavailable”.
